# Reference: publication PMC7898822, “RNA‐PROTACs: Degraders of RNA‐Binding Proteins” (Angewandte Chemie (International Ed. in English), 2020)
# Legend:
# Lin28A [1] = test: Pull-down RNA ELISA, gymnosis, anti-Lin28A; assay type: cell-based, human; conditions: 3'-biotin conjugates, K562 cells, 2 µM, 24 h; streptavidin plate; vs mock or FUS antibody
# Description: Humans express two paralogs of the protein, LIN28 (Lin28A) and LIN28B (Lin28B), that play key roles in development, metabolism, and pluripotency. ^[34] Lin28 proteins are abundantly expressed during embryonic development, as well as in several tumors and tumor‐derived cell lines. ^[35] […] In order to confirm that RNA‐PROTACs bind to endogenous Lin28 in cells, we performed a pull‐down RNA ELISA assay that we have previously described. ^[36] Thus, we conjugated a biotin group to the 3′ ends of ORN3P1 and ORN7P1 and added these reagents separately on to myelogenous leukemia K562 cells. We incubated lysates from treated cells on streptavidin‐coated plates so as to capture the RNA‐PROTACs present in the cell lysates. We then assayed for the presence of Lin28A in the plates using an anti‐Lin28A antibody and a negative control anti‐FUS antibody. […]
# The protein extracts (12-17 µg) were run on a 4-20% SDS-PAGE and transferred on a nitrocellulose blotting membrane 0.22 µm (GE Healthcare) using the Trans-Blot transfer device (Biorad). […] The proteins were detected using the anti-lin28a antibody (Cell Signaling technology, D9F5), anti-lin28b antibody (Cell Signaling technology, 4196S), anti-rbfox1 (NovusBio, NBP2-13169SS), at 1:1000 and anti-hrnp c antibody […]
# on a ChemiDoc MP imager (Biorad). The intensity of the signal was quantified using the ImageJ-Fiji software. […]
# Lin28_ZKD = molecular target: T1, Lin28_ZKD (Homo sapiens, UniProt Q9H9Z2); test: Fluorescence polarization competition assay (displacement of let7FAM from Lin28_ZKD); assay type: binding; conditions: competition FP, conjugate vs parent
# T1 construct: construct encoding amino acids 124–186 of human Lin28; His6; made in house; host or cells: Escherichia coli BL21 (DE3) Codon+ (RIL)
# T1 sequence (Q9H9Z2 124-186): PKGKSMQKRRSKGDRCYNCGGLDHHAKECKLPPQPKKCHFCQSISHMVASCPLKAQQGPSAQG
# Protocol: Fluorescence Polarization Assay. Fluorescence polarization titration assay was carried out by titrating Lin28_ZKD protein into FAM-labeled PreE-let-7 at a 10 nM final concentration and buffer (10 mM HEPES, 150 mM NaCl, 10 µM ZiCl2, pH 7,4). The assay plate was briefly vortexed, and air bubbles were removed by spinning at 1000 rpm. The fluorescence anisotropy was measured on a Spectra Max Paradigm multimode plate reader (Molecular Devices). The fluorescence polarization competition […]
# preE-let-7. The concentration of Lin28_ ZKD is kept at 40 nM, a value in the range of the dissociation constant of Lin28_ZKD and preE-let-7 determined through fluorescence polarization titration assay, whereas preE-let-7 concentration is kept constant at 10 nM. FP competitive binding assays were performed on 384-well plates (#3575, Corning) with a total well volume of 10 µL.
# Fluorescence polarization readings were transferred into Prism 7.0 (GraphPad). All fluorescence polarization assays were repeated at least three times and the anisotropy values fitted using GraphPad Prism software using 1:1 binding/inhibition model. […]
# Lin28A [2] = test: Western blot of Lin28A in NT2/D1 cells; assay type: cell-based, human; conditions: 2 μM, three independent experiments
# Description: Finally, we tested RNA‐PROTACs for their ability to degrade their target in two cell lines: the embryonic NT2/D1 cell line, which expresses high levels of Lin28A, ^[13a] and K562 cells which express Lin28A and Lin28B. […] Finally, we co‐treated K562 cells with ORN3P1 and MG132, a reversible inhibitor of the 26S proteasome. […] In order to explore the versatility of RNA‐PROTACs with non peptide‐based VHL ligands, we conjugated small‐molecule VH032 ^[38] to ORN3 via an amino linker to yield ORN3VH032 (Figure S1). […]
# Lin28B = test: Confocal microscopy, LIN28B level in K562 cells; assay type: cell-based, human; conditions: FAM labelled ORN3P1, 1 µM, 24 h
# K562 cells [3] = test: Confocal microscopy, intracellular localization in K562 cells; assay type: cell-based, human; conditions: FAM labelled ORN3P1, 1 µM, 24 h
# K562 cells [4] = test: Intracellular uptake of FAM-labelled oligonucleotides, fluorescence microscopy; assay type: cell-based, human; conditions: FAM-conjugated, 1 µM, 24 h
smiles,measurement,setting,value
CC[C@H](C)[C@H](NC(=O)[C@H](Cc1ccc(O)cc1)NC(=O)[C@@H]1C[C@@H](O)CN1C(=O)[C@H](C)NC(=O)[C@H](CC(C)C)NC(=O)CCCCCNC(=O)[C@@H](N)CSC1CC(=O)N(CCOP(=O)(S)OC[C@H]2O[C@@H](n3cnc4c(N)ncnc43)[C@H](OCCOC)[C@@H]2OP(=O)(S)OC[C@H]2O[C@@H](n3cnc4c(=O)[nH]c(N)nc43)[C@H](OCCOC)[C@@H]2OP(=O)(S)OC[C@H]2O[C@@H](n3cnc4c(=O)[nH]c(N)nc43)[C@H](OCCOC)[C@@H]2OP(=O)(S)OC[C@H]2O[C@@H](n3cnc4c(N)ncnc43)[C@H](OCCOC)[C@@H]2OP(=O)(S)OC[C@H]2O[C@@H](n3cnc4c(=O)[nH]c(N)nc43)[C@H](OCCOC)[C@@H]2OP(=O)(S)OC[C@H]2O[C@@H](n3cnc4c(N)ncnc43)[C@H](OCCOC)[C@@H]2OP(=O)(S)OC[C@H]2O[C@@H](n3cc(C)c(=O)[nH]c3=O)[C@H](OCCOC)[C@@H]2O)C1=O)C(=O)O (stereo partly drawn) [ORN3P1],Lin28A pull-down signal,Lin28A [1],strong signal for Lin28A protein
same,competition for Lin28_ZKD relative to parent unconjugated oligonucleotides,Lin28_ZKD,competed slightly more strongly
same,reduction of Lin28A,Lin28A [2],~50%
same,LIN28B by confocal microscopy,Lin28B,relatively unaffected
same,intracellular presence by confocal microscopy,K562 cells [3],in the cytoplasm and nuclei of K562 cells
same,intracellular localization,K562 cells [4],present in the cytoplasm and nuclei of K562 cells
